# Results from PubChem BioAssay AID212 (DTP/NCI, 2004).
# Values joined by “and” are separate entries in the source; they are usually repeats but may differ in a detail not shown here. Identical values can stand only once. Inconclusive results are not listed.
# Tested on: BDF1 mice, colon carcinoma 38 sc, T/C %
# Assay: NCI In Vivo Anticancer Drug Screen. Data for tumor model Colon Carcinoma 38 (subcutaneous) in B6D2F1 (BDF1) mice
# Experimental: The antitumor activity of compounds was measured in mice bearing transplantable tumors. Survival or tumor size were measured and the results are expressed as the measurement made in the treated group (T) divided by the measurement made in the vehicle treated control group (C). The tumor model used in this assay is Colon Carcinoma 38 (subcutaneous) in B6D2F1 (BDF1) mice
# [1] = endpoint: median tumor weight (est.), dose: 12.5 mg/kg/injection, schedule: Q07DX002 (ip), vehicle: saline with Tween-80, higher = larger tumour
# [2] = endpoint: median tumor weight (est.), dose: 25.0 mg/kg/injection, schedule: Q07DX002 (ip), vehicle: saline with Tween-80, higher = larger tumour
# [3] = endpoint: median tumor weight (est.), dose: 50.0 mg/kg/injection, schedule: Q07DX002 (ip), vehicle: saline with Tween-80, higher = larger tumour
# [4] = endpoint: median tumor weight (est.), dose: 200.0 mg/kg/injection, schedule: Q07DX002 (ip), vehicle: saline with Tween-80, higher = larger tumour
# [5] = endpoint: median tumor weight (est.), dose: 400.0 mg/kg/injection, schedule: Q07DX002 (ip), vehicle: saline with Tween-80, higher = larger tumour
smiles,measurement,setting,value
Cc1c(N)nc(C(CC(N)=O)NCC(N)C(N)=O)nc1C(=O)NC(C(=O)NC(C)C(O)C(C)C(=O)NC(C(=O)NCCc1nc(-c2nc(C(=O)NCCCNC(C)c3ccccc3)cs2)cs1)C(C)O)C(OC1OC(CO)C(O)C(O)C1OC1OC(CO)C(O)C(OC(N)=O)C1O)c1cnc[nH]1 (stereo not drawn),T/C,"endpoint: median tumor weight (est.), dose: 0.5 mg/kg/injection, schedule: Q07DX003 (ip), vehicle: saline, higher = larger tumour",75 % of control
same,T/C,"endpoint: median tumor weight (est.), dose: 1.0 mg/kg/injection, schedule: Q07DX002 (ip), vehicle: saline, higher = larger tumour",66 % of control
same,T/C,"endpoint: median tumor weight (est.), dose: 1.0 mg/kg/injection, schedule: Q07DX003 (ip), vehicle: saline, higher = larger tumour",90 % of control
same,T/C,"endpoint: median tumor weight (est.), dose: 2.0 mg/kg/injection, schedule: Q07DX002 (ip), vehicle: saline, higher = larger tumour",75 % of control
same,T/C,"endpoint: median tumor weight (est.), dose: 2.0 mg/kg/injection, schedule: Q07DX003 (ip), vehicle: saline, higher = larger tumour",102 % of control
same,T/C,"endpoint: median tumor weight (est.), dose: 4.0 mg/kg/injection, schedule: Q07DX003 (ip), vehicle: saline, higher = larger tumour",62 % of control
same,T/C,"endpoint: median tumor weight (est.), dose: 8.0 mg/kg/injection, schedule: Q07DX003 (ip), vehicle: saline, higher = larger tumour",83 % of control
same,T/C,"endpoint: median tumor weight (est.), dose: 16.0 mg/kg/injection, schedule: Q07DX003 (ip), vehicle: saline, higher = larger tumour",92 % of control
same,T/C,"endpoint: median tumor weight (est.), dose: 32.0 mg/kg/injection, schedule: Q07DX002 (ip), vehicle: saline, higher = larger tumour",29 % of control
O=c1oc2c(O)c(O)cc3c(=O)oc4c(O)c(O)cc1c4c23,T/C,"endpoint: median tumor weight (est.), dose: 12.5 mg/kg/injection, schedule: Q07DX002 (ip), vehicle: Klucel (hydroxypropylcellulose) (HPC), higher = larger tumour",195 % of control
same,T/C,"endpoint: median tumor weight (est.), dose: 25.0 mg/kg/injection, schedule: Q07DX002 (ip), vehicle: Klucel (hydroxypropylcellulose) (HPC), higher = larger tumour",200 % of control
same,T/C,"endpoint: median tumor weight (est.), dose: 50.0 mg/kg/injection, schedule: Q07DX002 (ip), vehicle: Klucel (hydroxypropylcellulose) (HPC), higher = larger tumour",181 % of control
same,T/C,"endpoint: median tumor weight (est.), dose: 400.0 mg/kg/injection, schedule: Q07DX002 (ip), vehicle: Klucel (hydroxypropylcellulose) (HPC), higher = larger tumour",155 % of control
CC1c2ccccc2Cn2cc3c(c21)C(=O)c1cccc(OP(=O)(O)OCc2ccccc2)c1C3=O (stereo not drawn),T/C,"endpoint: median tumor weight (est.), dose: 0.5 mg/kg/injection, schedule: Q01DX012 (ip), vehicle: saline with Tween-80, higher = larger tumour",62 % of control
same,T/C,"endpoint: median tumor weight (est.), dose: 1.0 mg/kg/injection, schedule: Q01DX012 (ip), vehicle: saline with Tween-80, higher = larger tumour",73 % of control
same,T/C,"endpoint: median tumor weight (est.), dose: 2.0 mg/kg/injection, schedule: Q01DX012 (ip), vehicle: saline with Tween-80, higher = larger tumour",23 % of control
same,T/C,"endpoint: median tumor weight (est.), dose: 4.0 mg/kg/injection, schedule: Q01DX012 (ip), vehicle: saline with Tween-80, higher = larger tumour",28 % of control
Cc1cn(C2CC(F)C(CO)O2)c(=O)[nH]c1=O (stereo not drawn),T/C,"endpoint: median tumor weight (est.), dose: 50.0 mg/kg/injection, schedule: Q01DX001 (ip), vehicle: Klucel (hydroxypropylcellulose) (HPC), higher = larger tumour",204 % of control
same,T/C,"endpoint: median tumor weight (est.), dose: 100.0 mg/kg/injection, schedule: Q01DX001 (ip), vehicle: Klucel (hydroxypropylcellulose) (HPC), higher = larger tumour",193 % of control
same,T/C,"endpoint: median tumor weight (est.), dose: 200.0 mg/kg/injection, schedule: Q01DX001 (ip), vehicle: Klucel (hydroxypropylcellulose) (HPC), higher = larger tumour",182 % of control
same,T/C,"endpoint: median tumor weight (est.), dose: 200.0 mg/kg/injection, schedule: Q07DX002 (ip), vehicle: saline, higher = larger tumour",119 % of control
same,T/C,"endpoint: median tumor weight (est.), dose: 400.0 mg/kg/injection, schedule: Q01DX001 (ip), vehicle: Klucel (hydroxypropylcellulose) (HPC), higher = larger tumour",165 % of control
same,T/C,"endpoint: median tumor weight (est.), dose: 400.0 mg/kg/injection, schedule: Q07DX002 (ip), vehicle: saline, higher = larger tumour",103 % of control
same,T/C,"endpoint: median tumor weight (est.), dose: 800.0 mg/kg/injection, schedule: Q07DX002 (ip), vehicle: saline, higher = larger tumour",117 % of control
same,T/C,"endpoint: median tumor weight (est.), dose: 1600.0 mg/kg/injection, schedule: Q07DX002 (ip), vehicle: saline, higher = larger tumour",100 % of control
CC1CCC(NC(=O)N(CCCl)N=O)CC1 (stereo not drawn),T/C,"endpoint: median survival time, dose: 3.3 mg/kg/injection, schedule: Q01DX010 (oral), vehicle: saline with Tween-80, higher = longer survival",115 % of control
same,T/C,"endpoint: median survival time, dose: 5.0 mg/kg/injection, schedule: Q04DX005 (ip), vehicle: other, higher = longer survival",93 % of control
same,T/C,"endpoint: median survival time, dose: 5.5 mg/kg/injection, schedule: Q01DX010 (oral), vehicle: saline with Tween-80, higher = longer survival",99 % of control
same,T/C,"endpoint: median survival time, dose: 9.0 mg/kg/injection, schedule: Q01DX010 (oral), vehicle: saline with Tween-80, higher = longer survival",100 % of control
same,T/C,"endpoint: median survival time, dose: 10.0 mg/kg/injection, schedule: Q04DX005 (ip), vehicle: other, higher = longer survival",122 % of control
same,T/C,"endpoint: median survival time, dose: 20.0 mg/kg/injection, schedule: Q04DX005 (ip), vehicle: other, higher = longer survival",153 % of control
same,T/C,"endpoint: median tumor weight (est.), dose: 4.0 mg/kg/injection, schedule: Q07DX002 (ip), vehicle: Klucel (hydroxypropylcellulose) (HPC), higher = larger tumour",61 % of control
same,T/C,"endpoint: median tumor weight (est.), dose: 8.0 mg/kg/injection, schedule: Q07DX002 (ip), vehicle: Klucel (hydroxypropylcellulose) (HPC), higher = larger tumour",53 % of control
same,T/C,"endpoint: median tumor weight (est.), dose: 16.0 mg/kg/injection, schedule: Q07DX002 (ip), vehicle: Klucel (hydroxypropylcellulose) (HPC), higher = larger tumour",64 % of control
same,T/C,"endpoint: median tumor weight (est.), dose: 32.0 mg/kg/injection, schedule: Q07DX002 (ip), vehicle: Klucel (hydroxypropylcellulose) (HPC), higher = larger tumour",18 % of control
C[CH2][Pb]([CH2]C)([CH2]C)[O]C(=O)COc1ccccc1,T/C,"endpoint: median tumor weight (est.), dose: 0.75 mg/kg/injection, schedule: Q07DX002 (ip), vehicle: Klucel (hydroxypropylcellulose) (HPC), higher = larger tumour",166 % of control
same,T/C,"endpoint: median tumor weight (est.), dose: 3.0 mg/kg/injection, schedule: Q07DX002 (ip), vehicle: Klucel (hydroxypropylcellulose) (HPC), higher = larger tumour",151 % of control
same,T/C,"endpoint: median tumor weight (est.), dose: 6.0 mg/kg/injection, schedule: Q07DX002 (ip), vehicle: Klucel (hydroxypropylcellulose) (HPC), higher = larger tumour",118 % of control
same,T/C,"endpoint: median tumor weight (est.), dose: 12.0 mg/kg/injection, schedule: Q07DX002 (ip), vehicle: Klucel (hydroxypropylcellulose) (HPC), higher = larger tumour",176 % of control
C=C(C)[C@]12CC(C)C34OC(/C=C\C=C\CCCCCCCCC)(O[C@@H]1[C@@H]3[C@@H]1O[C@]1(CO)[C@@H](O)[C@]1(O)C(=O)C(C)=C[C@@H]41)O2 (stereo partly drawn),T/C,"endpoint: median tumor weight (est.), dose: 0.18 mg/kg/injection, schedule: Q07DX002 (ip), vehicle: distilled water + alcohol, higher = larger tumour",109 % of control
same,T/C,"endpoint: median tumor weight (est.), dose: 0.37 mg/kg/injection, schedule: Q07DX002 (ip), vehicle: distilled water + alcohol, higher = larger tumour",76 % of control
same,T/C,"endpoint: median tumor weight (est.), dose: 0.75 mg/kg/injection, schedule: Q07DX002 (ip), vehicle: distilled water + alcohol, higher = larger tumour",105 % of control
same,T/C,"endpoint: median tumor weight (est.), dose: 1.5 mg/kg/injection, schedule: Q07DX002 (ip), vehicle: distilled water + alcohol, higher = larger tumour",75 % of control
C=C(C)C(=NC(C)(C)C)Nc1ccccc1,T/C,[1],100 % of control
same,T/C,[2],101 % of control
same,T/C,[3],103 % of control
same,T/C,[4],108 % of control
same,T/C,[5],100 % of control
CC[C@H]1CN2CCc3cc(OC)c(OC)cc3[C@@H]2C[C@@H]1C[C@H]1NCCc2cc(O)c(OC)cc21,T/C,"endpoint: median tumor weight (est.), dose: 3.0 mg/kg/injection, schedule: Q07DX002 (ip), vehicle: suspension in saline, higher = larger tumour",101 % of control
same,T/C,"endpoint: median tumor weight (est.), dose: 6.0 mg/kg/injection, schedule: Q07DX002 (ip), vehicle: suspension in saline, higher = larger tumour",110 % of control
same,T/C,"endpoint: median tumor weight (est.), dose: 12.0 mg/kg/injection, schedule: Q07DX002 (ip), vehicle: suspension in saline, higher = larger tumour",98 % of control
same,T/C,"endpoint: median tumor weight (est.), dose: 24.0 mg/kg/injection, schedule: Q07DX002 (ip), vehicle: suspension in saline, higher = larger tumour",89 % of control
CCOC(=O)[C@]1(Br)CC[C@@]1(Br)C(=O)OCC,T/C,[1],76 % of control
same,T/C,[3],71 % of control and 75 % of control
same,T/C,[4],78 % of control and 95 % of control and 96 % of control
same,T/C,[5],79 % of control and 80 % of control and 97 % of control
same,T/C,"endpoint: median tumor weight (est.), dose: 800.0 mg/kg/injection, schedule: Q07DX002 (ip), vehicle: saline with Tween-80, higher = larger tumour",113 % of control
O=CC(=O)c1ccc(O)cc1,T/C,"endpoint: median tumor weight (est.), dose: 6.25 mg/kg/injection, schedule: Q07DX002 (ip), vehicle: suspension in saline, higher = larger tumour",216 % of control
same,T/C,"endpoint: median tumor weight (est.), dose: 12.5 mg/kg/injection, schedule: Q07DX002 (ip), vehicle: suspension in saline, higher = larger tumour",114 % of control
same,T/C,"endpoint: median tumor weight (est.), dose: 25.0 mg/kg/injection, schedule: Q07DX002 (ip), vehicle: suspension in saline, higher = larger tumour",153 % of control
same,T/C,"endpoint: median tumor weight (est.), dose: 50.0 mg/kg/injection, schedule: Q07DX002 (ip), vehicle: suspension in saline, higher = larger tumour",153 % of control
same,T/C,"endpoint: median tumor weight (est.), dose: 200.0 mg/kg/injection, schedule: Q07DX002 (ip), vehicle: suspension in saline, higher = larger tumour",118 % of control
O=C1CC(C(=O)N2Cc3cc4ccccc4nc3C2)CO1 (stereo not drawn),T/C,"endpoint: median tumor weight (est.), dose: 6.25 mg/kg/injection, schedule: Q07DX002 (ip), vehicle: saline with Tween-80, higher = larger tumour",72 % of control
same,T/C,[1],100 % of control
same,T/C,[2],101 % of control
same,T/C,[3],122 % of control
same,T/C,"endpoint: median tumor weight (est.), dose: 100.0 mg/kg/injection, schedule: Q07DX002 (ip), vehicle: saline with Tween-80, higher = larger tumour",124 % of control
same,T/C,[4],100 % of control
Cc1ccc(S(=O)(=O)N/N=C/C(=O)O)cc1,T/C,"endpoint: median tumor weight (est.), dose: 12.5 mg/kg/injection, schedule: Q07DX002 (ip), vehicle: other, higher = larger tumour",116 % of control
same,T/C,"endpoint: median tumor weight (est.), dose: 25.0 mg/kg/injection, schedule: Q07DX002 (ip), vehicle: other, higher = larger tumour",165 % of control
same,T/C,"endpoint: median tumor weight (est.), dose: 50.0 mg/kg/injection, schedule: Q07DX002 (ip), vehicle: other, higher = larger tumour",75 % of control
same,T/C,"endpoint: median tumor weight (est.), dose: 100.0 mg/kg/injection, schedule: Q07DX002 (ip), vehicle: other, higher = larger tumour",90 % of control
same,T/C,"endpoint: median tumor weight (est.), dose: 200.0 mg/kg/injection, schedule: Q07DX002 (ip), vehicle: other, higher = larger tumour",178 % of control
